Values after ≈ are worked out from the molar mass of the structure shown.
How the values were obtained:
[1] = test system: Mycobacteroides abscessus; assay: Antimycobacterial activity against Mycobacterium abscessus CIP104536T with smooth morphotype assessed as inhibition of mycobacterial growth incubated for 3 to 5 days by resazurin microtiter assay; type: functional; settings: time 3-5 day
[2] = test system: Mycobacteroides abscessus; assay: Antimycobacterial activity against Mycobacterium abscessus CIP104536T with rough morphotype assessed as inhibition of mycobacterial growth incubated for 3 to 5 days by resazurin microtiter assay; type: functional; settings: time 3-5 day
[3] = test system: Mycobacterium marinum; assay: Antimycobacterial activity against Mycobacterium marinum ATCC BAA-535/M assessed as inhibition of mycobacterial growth incubated for 10 to 14 days by resazurin microtiter assay; type: functional; settings: time 10-14 day
[4] = Cytotoxicity against C57BL/6 mouse BMDM cells assessed as reduction in cell viability measured after 24 hrs by resazurin dye based assay; type: toxicity; settings: C57BL/6, mouse, BMDM cells (bone marrow-derived macrophages)
[5] = test system: Mycobacterium tuberculosis; assay: Antimycobacterial activity against Mycobacterium tuberculosis mc2 6230 assessed as inhibition of mycobacterial growth incubated for 10 to 14 days by resazurin microtiter assay; type: functional; settings: time 10-14 day

SMILES	MIC50 [1]	MIC50 [2]	MIC50 [3]	MIC90 [3]	CC50 at 24 h [4]	MIC50 [5]	MIC90 [5]	MIC90 [1]	MIC90 [2]
O=C(/C=C/C=C/c1ccccc1)NO	> 100 µg/mL	> 100 µg/mL	14.9 µg/mL (≈ 78.7 µM)	91.4 µg/mL (≈ 483 µM)	< 10 µg/mL	> 100 µg/mL			
CCCCCC(=O)ONC(=O)/C=C/C=C/c1ccc(OC)cc1	> 100 µg/mL	> 100 µg/mL	26.8 µg/mL (≈ 84.4 µM)	54.5 µg/mL (≈ 172 µM)	< 10 µg/mL	13.8 µg/mL (≈ 43.5 µM)	22.9 µg/mL (≈ 72.2 µM)		
NNC(=O)/C=C/C=C/c1ccc(F)cc1	> 100 µg/mL	> 100 µg/mL	20.6 µg/mL (≈ 99.9 µM)	> 100 µg/mL	> 125 µg/mL	27.4 µg/mL (≈ 133 µM)	> 100 µg/mL		
CCCCCC(=O)ONC(=O)/C=C/C=C/c1ccc(F)cc1	> 100 µg/mL	> 100 µg/mL	19.8 µg/mL (≈ 64.8 µM)	92.9 µg/mL (≈ 304 µM)	< 10 µg/mL	21.6 µg/mL (≈ 70.7 µM)	40.7 µg/mL (≈ 133 µM)		
O=C(/C=C/c1cccc(F)c1)NO	12.2 µg/mL (≈ 67.3 µM)	7.6 µg/mL (≈ 42 µM)	3.3 µg/mL (≈ 18.2 µM)	25.9 µg/mL (≈ 143 µM)	< 10 µg/mL	13.5 µg/mL (≈ 74.5 µM)	> 100 µg/mL	> 100 µg/mL	68.4 µg/mL (≈ 378 µM)
O=C(/C=C/c1ccc(-c2ccccc2)cc1)NO	> 100 µg/mL	> 100 µg/mL	20.8 µg/mL (≈ 86.9 µM)	68.6 µg/mL (≈ 287 µM)	16 µg/mL (≈ 66.9 µM)	20.6 µg/mL (≈ 86.1 µM)	> 100 µg/mL		
O=C(/C=C/C=C/c1cccc(F)c1)NO	36.8 µg/mL (≈ 178 µM)	6 µg/mL (≈ 29 µM)	7.5 µg/mL (≈ 36.2 µM)	39.3 µg/mL (≈ 190 µM)	< 10 µg/mL	7.6 µg/mL (≈ 36.7 µM)	> 100 µg/mL	> 100 µg/mL	19 µg/mL (≈ 91.7 µM)
O=C(/C=C/C=C/c1cccc(C(F)(F)F)c1)NO	52.3 µg/mL (≈ 203 µM)	4.4 µg/mL (≈ 17.1 µM)	10.1 µg/mL (≈ 39.3 µM)	> 100 µg/mL	< 10 µg/mL	50.5 µg/mL (≈ 196 µM)	> 100 µg/mL	> 100 µg/mL	7 µg/mL (≈ 27.2 µM)
CCCCCCCCCC(=O)ONC(=O)/C=C/C=C/c1ccc(F)cc1	> 100 µg/mL	> 100 µg/mL	13.2 µg/mL (≈ 36.5 µM)	17.3 µg/mL (≈ 47.9 µM)	> 125 µg/mL	20.3 µg/mL (≈ 56.2 µM)	34.7 µg/mL (≈ 96 µM)		
NNC(=O)/C=C/C=C/c1ccc(C(F)(F)F)cc1	> 100 µg/mL	5.7 µg/mL (≈ 22.2 µM)	> 100 µg/mL		> 125 µg/mL	23.7 µg/mL (≈ 92.5 µM)	> 100 µg/mL		19.4 µg/mL (≈ 75.7 µM)
CCCCCC(=O)ONC(=O)/C=C/c1ccc(OC)cc1	63 µg/mL (≈ 216 µM)	> 100 µg/mL	21.2 µg/mL (≈ 72.8 µM)	46.7 µg/mL (≈ 160 µM)	> 125 µg/mL	32.8 µg/mL (≈ 113 µM)	61.4 µg/mL (≈ 211 µM)	76.5 µg/mL (≈ 263 µM)	
O=C(/C=C/c1ccc(F)cc1)NO	> 100 µg/mL	> 100 µg/mL	3.5 µg/mL (≈ 19.3 µM)	23.9 µg/mL (≈ 132 µM)	< 10 µg/mL	47.3 µg/mL (≈ 261 µM)	55.4 µg/mL (≈ 306 µM)		
CCCCOc1ccc(/C=C/C=C/C(=O)NN)cc1	> 100 µg/mL	> 100 µg/mL	> 100 µg/mL		65 µg/mL (≈ 250 µM)	> 100 µg/mL			
NNC(=O)/C=C/c1ccc(F)cc1	> 100 µg/mL	> 100 µg/mL	60.5 µg/mL (≈ 336 µM)	80.4 µg/mL (≈ 446 µM)	< 10 µg/mL	> 100 µg/mL			
CCCCCCONC(=O)/C=C/C=C/c1ccc(F)cc1	> 100 µg/mL	> 100 µg/mL	37.1 µg/mL (≈ 127 µM)	> 100 µg/mL	> 125 µg/mL	> 100 µg/mL			
CCCCCCCOc1ccc(/C=C/C=C/C(=O)NN)cc1	26.6 µg/mL (≈ 88 µM)	9.7 µg/mL (≈ 32.1 µM)	> 100 µg/mL		64 µg/mL (≈ 212 µM)	27 µg/mL (≈ 89.3 µM)	29.1 µg/mL (≈ 96.2 µM)	> 100 µg/mL	26.1 µg/mL (≈ 86.3 µM)
O=C(/C=C/c1cccc(C(F)(F)F)c1)NO	72.5 µg/mL (≈ 314 µM)	7.8 µg/mL (≈ 33.7 µM)	7.1 µg/mL (≈ 30.7 µM)	47.7 µg/mL (≈ 206 µM)	< 10 µg/mL	12.8 µg/mL (≈ 55.4 µM)	> 100 µg/mL	74.8 µg/mL (≈ 324 µM)	16 µg/mL (≈ 69.2 µM)
COc1ccc(/C=C/C(=O)NO)cc1	> 100 µg/mL	> 100 µg/mL	58.2 µg/mL (≈ 301 µM)	89.5 µg/mL (≈ 463 µM)	< 10 µg/mL	23.1 µg/mL (≈ 120 µM)	24.3 µg/mL (≈ 126 µM)		
O=C(/C=C/c1ccc(C(F)(F)F)cc1)NO	37.2 µg/mL (≈ 161 µM)	6.3 µg/mL (≈ 27.3 µM)	14.1 µg/mL (≈ 61 µM)	> 100 µg/mL	< 10 µg/mL	14.4 µg/mL (≈ 62.3 µM)	> 100 µg/mL	39.6 µg/mL (≈ 171 µM)	21.9 µg/mL (≈ 94.7 µM)

— ChEMBL document CHEMBL5143637, “Design, synthesis and antibacterial activity against pathogenic mycobacteria of conjugated hydroxamic acids, hydrazides and O-alkyl/O-acyl protected hydroxamic derivatives” (Bioorg Med Chem Lett, 2022)
